Test results from US20050171358A1 (priority 2002, published 2005).

What was measured:
Pyricularia oryzae = assay type: in vivo; conditions: 200 ppm spray on rice (Koshihikari, 3 leaf stage), inoculated next day; lesion numbers on third leaves after 7 days in green house, graded by Table 5
[1] = system: Colletotrichum lagenarium; conditions: 200 ppm spray on cucumber (3 leaf stage), inoculated next day; lesion numbers on first and second leaves after 7 days in green house, graded by Table 5

Row | SMILES | Evaluation (effect for rice blast) (Pyricularia oryzae) | Evaluation (effect for cucumber anthracnose) [1]
1 | CC(C)Cc1cc(CNC(=O)c2ccc(C(F)(F)F)cc2)on1 [III-257, N-[(3-isobutyl-5-isoxazolyl)methyl]-4-trifluoromethylbenzamide] | 3 (6˜10) | 4 (1˜5)
2 | CC(C)Cc1cc(CNC(=O)c2ccc(Cl)cc2Cl)on1 [III-253, N-[(3-isobutyl-5-isoxazolyl)methyl]-2,4-dichlorobenzamide] | 5 (0) | 5 (0)
3 | Cc1ccc(C(=O)NCc2cc(Cc3cccc(C)c3)no2)cc1 [IV-11, N-{[3-(3-methylbenzyl)-5-isoxazolyl]methyl}-4-methylbenzamide] | 5 (0) | 5 (0)
4 | N#Cc1ccc(C(=O)NCc2cc(-c3ccccc3)no2)cc1 [III-133, N-[(3-phenyl-5-isoxazolyl)methyl]-4-cyanobenzamide] | 4 (1˜5) | 4 (1˜5)
5 | Cc1ccc(C(=O)NCc2cc(-c3ccc(N(C)C)cc3)no2)cc1 [III-61, N-{[3-(4-dimethylaminophenyl)-5-isoxazolyl]methyl}-4-methylbenzamide] | 5 (0) | 4 (1˜5)
6 | COc1ccc(-c2cc(CNC(=O)c3ccccc3)on2)cc1OC [III-67, N-{[3-(3,4-dimethoxyphenyl)-5-isoxazolyl]methyl}benzamide] | 5 (0) | 5 (0)
7 | COc1ccc(C(=O)NCc2cc(COc3ccc(-n4cncn4)cc3)no2)cc1 [IV-73] | 2 (11˜20) | 3 (6˜10)
8 | O=C(NCc1cc(C2CCCCC2)no1)Oc1ccccc1 [I-6, phenyl[(3-cyclohexyl-5-isoxazolyl)methyl]carbamate] | 5 (0) | 5 (0)
9 | O=C(/C=C/c1ccccc1)NCc1cc(COc2ccccc2)no1 [IV-99, N-[(3-phenoxymethyl-5-isoxazolyl)methyl]-β-phenylacrylamide] | 4 (1˜5) | 4 (1˜5)
10 | COc1ccc(C(=O)NCc2cc(C(=O)Nc3ccc(F)cc3F)no2)cc1 [IV-107, N-{[3-(2,4-difluorophenyl)aminocarbonyl-5-isoxazolyl]methyl}-4-methoxybenzamide] | 5 (0) | 5 (0)
11 | Cc1ccc(C(=O)NCc2cc(CC(C)C)no2)cc1 [III-251, N-[(3-isobutyl-5-isoxazolyl)methyl]-4-methylbenzamide] | 5 (0) | 5 (0)
12 | CC(c1ccccc1)c1cc(CNC(=O)c2ccccc2)on1 (stereo not shown) [IV-29, N-{[3-(1-phenylethyl)-5-isoxazolyl]methyl}benzamide] | 3 (6˜10) | 3 (6˜10)
13 | CCCC(C)c1cc(CNC(=O)c2ccc(OC)cc2)on1 (stereo not shown) [III-246, N-[(3-sec-pentyl-5-isoxazolyl)methyl]-4-methoxybenzamide] | 3 (6˜10) | 3 (6˜10)
14 | CCCc1cc(CNC(=O)c2ccc(OC)cc2)on1 [III-245, N-[(3-propyl-5-isoxazolyl)methyl]-4-methoxybenzamide] | 5 (0) | 5 (0)
15 | O=C(NCc1cc(C2CCCCC2)no1)c1ccccc1 [III-6, N-[(3-cyclohexyl-5-isoxazolyl)methyl]benzamide] | 5 (0) | 4 (1˜5)
16 | COc1ccccc1C(=O)NCc1cc(-c2ccccc2)no1 [III-109, N-[(3-phenyl-5-isoxazolyl)methyl]-2-methoxybenzamide] | 4 (1˜5) | 5 (0)
17 | COc1ccc(C(=O)NCc2cc(COc3ccccc3F)no2)cc1 [IV-57] | 5 (0) | 5 (0)
18 | Cc1ccccc1C(=O)NCc1cc(C(=O)Nc2ccccc2)no1 [IV-117, N-[(3-phenylaminocarbonyl-5-isoxazolyl)methyl]-2-methylbenzamide] | 4 (1˜5) | 4 (1˜5)
19 | CC(C)c1cc(CNC(=O)c2cc(Cl)nc(Cl)c2)on1 [III-243, N-[(3-isopropyl-5-isoxazolyl)methyl]-2,6-dichloropyridine-4-carboxamide] | 2 (11˜20) | 1 (21˜41)
20 | COc1ccc(C(=O)NCc2cc(COc3ccc([N+](=O)[O-])cc3)no2)cc1 [IV-60, N-{[3-(4-nitrophenyl)oxymethyl-5-isoxazolyl]methyl}-4-methoxybenzamide] | 5 (0) | 5 (0)
21 | CN(C(=O)NCc1cc(-c2ccccc2)no1)c1ccccc1 [II-12, 3-[(3-phenyl-5-isoxazolyl]methyl]-1-methyl-1-phenyl urea] | 4 (1˜5) | 4 (1˜5)

Row | SMILES | Evaluation (effect for rice blast) (Pyricularia oryzae) | Evaluation (effect for cucumber anthracnose) [1]
22 | CCC(C)c1cc(CNC(=O)c2ccc(OC)cc2)on1 (stereo not shown) [III-236, N-[(3-sec-butyl-5-isoxazolyl)methyl]-4-methoxybenzamide] | 4 (1˜5) | 4 (1˜5)
23 | N#CCc1cc(CNC(=O)NC2CCCCC2)on1 [II-113, 3-(3-cyanomethyl-5-isoxazolyl)methyl-1-cyclohexylurea] | 2 (11˜20) | 1 (21˜41)
24 | COc1ccc(C(=O)NCc2cc(C(=O)Nc3ccc(C#N)cc3)no2)cc1 [IV-97, N-{[3-(4-cyanophenyl)aminocarbonyl-5-isoxazolyl]methyl}-4-methoxybenzamide] | 5 (0) | 5 (0)
25 | CC(C)c1cc(CNC(=O)Oc2ccccc2)on1 [I-4] | 5 (0) | 5 (0)
26 | Cc1ccc(C(=O)NCc2cc(-c3ccccn3)no2)cc1 [III-217, N-{[3-(2-pyridyl)-5-isoxazolyl]methyl}-4-methylbenzamide] | 4 (1˜5) | 4 (1˜5)
27 | CC(C)Cc1cc(CNC(=O)c2ccc(Br)cc2)on1 [III-256, N-[(3-isobutyl-5-isoxazolyl)methyl]-4-bromobenzamide] | 5 (0) | 5 (0)
28 | COc1ccc(C(=O)NCc2cc(COc3cccc(F)c3)no2)cc1 [IV-58, N-{[3-(3-fluorophenyl)oxymethyl-5-isoxazolyl]methyl}-4-methoxybenzamide] | 5 (0) | 5 (0)
29 | COc1ccc(C(=O)NCc2cc(-c3ccc(OC)cc3)no2)cc1 [III-18, N-{[3-(4-methoxyphenyl)-5-isoxazolyl]methyl}-4-methoxy benzamide] | 5 (0) | 5 (0)
30 | CNC(=O)c1ccc(OCc2cc(CNC(=O)c3ccc(OC)cc3)on2)cc1 [IV-88, N-{[3-(4-methylaminocarbonylphenyl)oxymethyl-5-isoxazolyl]methyl}-4-methoxybenzamide] | 3 (6˜10) | 3 (6˜10)
31 | COc1ccc(C(=O)NCc2cc(C=C(C)C)no2)cc1 [III-216, N-{[3-(2-methyl-1-propenyl)-5-isoxazolyl]methyl}-4-methoxylbenzamide] | 4 (1˜5) | 4 (1˜5)
32 | COc1ccc(C(=O)NCc2cc(COc3ccc(C(C)=O)cc3)no2)cc1 [IV-87, N-{[3-(4-acetylphenyl)oxymethyl-5-isoxazolyl]methyl}-4-methoxybenzamide] | 5 (0) | 4 (1˜5)
33 | COc1ccc(C(=O)NCc2cc(C#Cc3ccccc3)no2)cc1 [IV-110, N-[(3-phenylethynyl-5-isoxazolyl)methyl]-4-methoxybenzamide] | 5 (0) | 5 (0)
34 | CCCc1cc(CNC(=O)c2ccc(Br)cc2)on1 [III-264, N-[(3-propyl-5-isoxazolyl)methyl]-4-bromobenzamide] | 5 (0) | 5 (0)
35 | O=C(NCc1cc(-c2ccc(Cl)cc2)no1)Oc1ccccc1 [I-30, phenyl{[3-(4-chlorophenyl)-5-isoxazolyl)methyl]carbamate] | 5 (0) | 5 (0)
36 | Cc1ccc(C(=O)NCc2cc(-c3ccc(C)cc3C)no2)cc1 [III-65, N-{[3-(2,4-dimethylphenyl)-5-isoxazolyl]methyl}-4-methylbenzamide] | 5 (0) | 5 (0)
37 | COc1ccc(C(=O)NCc2cc(ON=C(C)C)no2)cc1 [III-250, N-[(3-isopropyliminoxy-5-isoxazolyl)methyl]-4-methoxybenzamide] | 2 (11˜20) | 2 (11˜20)
38 | O=C(NCc1cc(-c2ccccc2)no1)OCc1ccccc1 [I-41, benzyl [(3-phenyl-5-isoxazolyl)methyl]carbamate] | 3 (6˜10) | 4 (1˜5)
39 | O=C(NCc1cc(-c2ccccc2)no1)c1ccc(OC(F)(F)F)cc1 [III-139, N-[(3-phenyl-5-isoxazolyl)methyl]-4-trifluoromethoxybenzamide] | 5 (0) | 5 (0)
40 | O=C(NCc1cc(-c2ccccc2)no1)N1CCc2ccccc21 [III-208, N-[(3-phenyl-5-isoxazolyl)methylaminocarbonyl]indoline] | 4 (1˜5) | 4 (1˜5)
41 | Cc1ccc(C(=O)NCc2cc(-c3ccc(S(C)(=O)=O)cc3)no2)cc1 [III-26, N-{[3-(4-mesylphenyl)-5-isoxazolyl]methyl}-4-methylbenzamide] | 5 (0) | 5 (0)
